Patent US20260123631A1, “NATURAL PORPHIN SALT AND USE THEREOF AS PLANT GROWTH REGULATOR AND PLANT IMMUNITY INDUCER” (NANJING BOSTEC BIOLOGICAL ENGINEERING CO., LTD, priority 2022, published 2026)

What was measured:
[1] = Water solubility of the prepared salts; assay type: physicochemical
[2] = Stability of sample solutions in the dark/under light; assay type: physicochemical; details: under light 30,000 lux, salts in water, acidic reference in 30% to 50% ethanol
Experimental: Determination: An appropriate amount of a salt sample was taken, dissolved with water, and diluted to prepare a test solution with a concentration of about 10 ppm. An acidic reference substance (extremely-insoluble in water) was prepared with a 30% to 50% ethanol aqueous solution into a test solution with a concentration of about 10 ppm.
Each test solution was scanned by an ultraviolet spectrophotometer (at 0 h) for absorbance in a range of 200 nm to 800 nm immediately after being prepared. Then a test solution of each sample was divided into two parts. One part was placed at room temperature of 25° C. in the dark, and the other part was placed under light with a light intensity of 30,000 lux. At 1 h, 2 h, and 3 h, a solution sample was collected and scanned for absorbance respectively.
An absorbance value of a maximum absorption peak at 0 h (starting) of each test solution was set as a relative content of 100%, and a ratio of an absorbance value at each time point to the absorbance value at 0 h was calculated to determine a relative content, %.

Q: Which results are given for `C=CC1=C(C)c2cc3[n-]c(cc4nc(cc5[n-]c(cc1n2)c(C)c5C=C)C(C)=C4CCC(=O)[O-])c(CCC(=O)[O-])c3C.[Cl-].[Fe+3].[NH4+].[NH4+]` [Example 12, ammonium chlorhematin]?
A: solubility in water [1]: easily soluble; Relative content ([2]; 1 h): 73.07%; Relative content ([2]; 2 h): 67.80%; Relative content ([2]; 3 h): 66.25%

Q: Which solubility in water [1] does the source give for ferric zinc chlorophyllin [Example 39] here?
A: slightly soluble

Q: For magnesium hydroxyhematin [Example 64], which Relative content ([2]; 1 h) is on record?
A: 96.74%

Q: And the Relative content ([2]; 2 h)?
A: 93.78%

Q: What about the Relative content ([2]; 3 h) of the same molecule?
A: 93.33%

Q: For “copper iron hydroxychlorophyllin [Example 80]”, which solubility in water [1] is on record?
A: slightly soluble

Q: And the Relative content ([2]; 1 h)?
A: 79.89%

Q: And the Relative content ([2]; 2 h)?
A: 76.11%

Q: What about the Relative content ([2]; 3 h) of the same molecule?
A: 73.21%

Q: Which solubility in water [1] does the source give for ferrous hydroxyhematin [Example 67] here?
A: slightly soluble

Q: With `C=CC1=C(C)c2cc3[n-]c(cc4nc(cc5[n-]c(cc1n2)c(C)c5C=C)C(C)=C4CCC(=O)[O-])c(CCC(=O)[O-])c3C.[Ca+2].[Cl-].[Fe+3]` [Example 14, calcium chlorhematin] as the molecule, how does the solubility in water [1] read?
A: soluble

Q: What about the Relative content ([2]; 1 h) of the same molecule?
A: 82.53%

Q: And the Relative content ([2]; 2 h)?
A: 81.78%

Q: What about the Relative content ([2]; 3 h) of the same molecule?
A: 81.97%

Q: For “ferrous copper chlorophyllin [Example 48]”, which solubility in water [1] is on record?
A: slightly soluble

Q: With ferrous iron chlorophyllin [Example 32] as the molecule, how does the solubility in water [1] read?
A: slightly soluble

Q: With `C=CC1=C(C)c2cc3[n-]c(cc4nc(cc5[n-]c(cc1n2)c(C)c5CCC(=O)[O-])C(CCC(=O)[O-])=C4C)c(C)c3C=C.[Cl-].[Fe+3].[Zn+2]` [Example 18, zinc chlorhematin] as the molecule, how does the solubility in water [1] read?
A: slightly soluble

Q: What about the Relative content ([2]; 1 h) of the same molecule?
A: 93.45%

Q: And the Relative content ([2]; 2 h)?
A: 93.10%

Q: What about the Relative content ([2]; 3 h) of the same molecule?
A: 92.74%

Q: Which solubility in water [1] does the source give for ferric protoporphyrin [Example 7] here?
A: slightly soluble

Q: For `C=CC1=C(C)c2cc3[n-]c(cc4nc(cc5[n-]c(cc1n2)c(C)c5C=C)C(C)=C4CCC(=O)[O-])c(CCC(=O)[O-])c3C.[Cl-].[Fe+3].[Mn+2]` [Example 15, manganese chlorhematin], which solubility in water [1] is on record?
A: slightly soluble

Q: And the Relative content ([2]; 2 h)?
A: 82.32%

Q: And the Relative content ([2]; 3 h)?
A: 81.07%

Q: Which results are given for `C=CC1=C(C)c2cc3[nH]c(cc4nc(cc5[nH]c(cc1n2)c(C)c5C=C)C(C)=C4CCC(=O)[O-])c(CCC(=O)[O-])c3C.[Ca+2]` [Example 4, calcium protoporphyrin]?
A: solubility in water [1]: soluble; Relative content ([2]; 1 h): 90.07%; Relative content ([2]; 2 h): 87.11%; Relative content ([2]; 3 h): 85.89%

Q: Which solubility in water [1] does the source give for ferrous chlorin [Example 57] here?
A: slightly soluble

Q: With “sodium iron hydroxychlorophyllin [Example 72]” as the molecule, how does the solubility in water [1] read?
A: easily soluble

Q: What about the Relative content ([2]; 1 h) of the same molecule?
A: 60.39%

Q: What about the Relative content ([2]; 2 h) of the same molecule?
A: 52.14%

Q: And the Relative content ([2]; 3 h)?
A: 47.32%

Q: For ferric chlorhematin [Example 17], which solubility in water [1] is on record?
A: slightly soluble

Q: With ferric iron chlorin [Example 26] as the molecule, how does the solubility in water [1] read?
A: slightly soluble

Q: For `C=CC1=C(C)c2cc3[nH]c(cc4nc(cc5[nH]c(cc1n2)c(C)c5C=C)C(C)=C4CCC(=O)[O-])c(CCC(=O)[O-])c3C.[Mn+2]` [Example 5, manganese protoporphyrin], which solubility in water [1] is on record?
A: soluble

Q: And the Relative content ([2]; 1 h)?
A: 92.57%

Q: And the Relative content ([2]; 2 h)?
A: 90.09%

Q: What about the Relative content ([2]; 3 h) of the same molecule?
A: 88.85%

Q: Which solubility in water [1] does the source give for zinc hydroxyhematin [Example 69] here?
A: slightly soluble

Q: What about the Relative content ([2]; 1 h) of the same molecule?
A: 94.32%

Q: And the Relative content ([2]; 2 h)?
A: 93.24%

Q: What about the Relative content ([2]; 3 h) of the same molecule?
A: 90.85%

Q: With `C=CC1=C(C)c2cc3[n-]c(cc4nc(cc5[n-]c(cc1n2)c(C)c5C=C)C(C)=C4CCC(=O)O)c(CCC(=O)O)c3C.[Zn+2]` [Example 8, zinc protoporphyrin] as the molecule, how does the solubility in water [1] read?
A: slightly soluble

Q: And the Relative content ([2]; 1 h)?
A: 90.95%

Q: And the Relative content ([2]; 2 h)?
A: 89.52%

Q: And the Relative content ([2]; 3 h)?
A: 86.51%

Q: Which solubility in water [1] does the source give for ferric iron chlorophyllin [Example 33] here?
A: slightly soluble

Q: Which solubility in water [1] does the source give for “zinc iron hydroxychlorophyllin [Example 79]” here?
A: slightly soluble

Q: And the Relative content ([2]; 1 h)?
A: 73.29%

Q: And the Relative content ([2]; 2 h)?
A: 69.57%

Q: What about the Relative content ([2]; 3 h) of the same molecule?
A: 65.55%

Q: With “ferric iron hydroxychlorophyllin [Example 77]” as the molecule, how does the solubility in water [1] read?
A: slightly soluble

Q: Which results are given for “potassium iron hydroxychlorophyllin [Example 71]”?
A: solubility in water [1]: easily soluble; Relative content ([2]; 1 h): 62.96%; Relative content ([2]; 2 h): 54.32%; Relative content ([2]; 3 h): 49.38%

Q: For magnesium protoporphyrin [Example 3], which solubility in water [1] is on record?
A: soluble

Q: What about the Relative content ([2]; 1 h) of the same molecule?
A: 93.32%

Q: What about the Relative content ([2]; 2 h) of the same molecule?
A: 90.98%

Q: What about the Relative content ([2]; 3 h) of the same molecule?
A: 89.65%

Q: What does the source list for manganese hydroxyhematin [Example 66]?
A: solubility in water [1]: slightly soluble; Relative content ([2]; 1 h): 87.45%; Relative content ([2]; 2 h): 83.77%; Relative content ([2]; 3 h): 80.00%

Q: Which results are given for copper hydroxyhematin [Example 70]?
A: solubility in water [1]: slightly soluble; Relative content ([2]; 1 h): 96.20%; Relative content ([2]; 2 h): 95.71%; Relative content ([2]; 3 h): 92.81%

Q: Which solubility in water [1] does the source give for ferric chlorin [Example 58] here?
A: slightly soluble

Q: Which solubility in water [1] does the source give for ferric hydroxyhematin [Example 68] here?
A: slightly soluble

Q: For ferrous zinc chlorophyllin [Example 38], which solubility in water [1] is on record?
A: slightly soluble

Q: For `C=CC1=C(C)c2cc3[n-]c(cc4[n-]c(cc5nc(cc1n2)C(C)=C5C=C)c(C)c4CCC(=O)O)c(CCC(=O)O)c3C.[Fe+2]` [Example 6, ferrous protoporphyrin], which solubility in water [1] is on record?
A: soluble

Q: With “manganese iron hydroxychlorophyllin [Example 78]” as the molecule, how does the solubility in water [1] read?
A: slightly soluble

Q: And the Relative content ([2]; 1 h)?
A: 75.51%

Q: And the Relative content ([2]; 2 h)?
A: 70.44%

Q: And the Relative content ([2]; 3 h)?
A: 68.12%

Q: With `C=CC1=C(C)c2cc3[nH]c(cc4nc(cc5[nH]c(cc1n2)c(C)c5C=C)C(C)=C4CCC(=O)O)c(CCC(=O)O)c3C.N.N` [Example 2, ammonium protoporphyrin] as the molecule, how does the solubility in water [1] read?
A: easily soluble

Q: And the Relative content ([2]; 1 h)?
A: 60.29%

Q: What about the Relative content ([2]; 2 h) of the same molecule?
A: 48.76%

Q: And the Relative content ([2]; 3 h)?
A: 45.99%

Q: With `C=CC1=C(C)c2cc3[n-]c(cc4nc(cc5[n-]c(cc1n2)c(C)c5CCC(=O)[O-])C(CCC(=O)[O-])=C4C)c(C)c3C=C.[Cl-].[Cu+2].[Fe+3]` [Example 19, copper chlorhematin] as the molecule, how does the solubility in water [1] read?
A: slightly soluble

Q: And the Relative content ([2]; 1 h)?
A: 95.23%

Q: What about the Relative content ([2]; 2 h) of the same molecule?
A: 95.03%

Q: And the Relative content ([2]; 3 h)?
A: 93.04%

Q: For “magnesium iron hydroxychlorophyllin [Example 74]”, which Relative content ([2]; 1 h) is on record?
A: 80.48%

Q: And the Relative content ([2]; 2 h)?
A: 67.53%

Q: And the Relative content ([2]; 3 h)?
A: 67.13%

Q: Which solubility in water [1] does the source give for ferrous iron chlorin [Example 25] here?
A: slightly soluble

Q: Which solubility in water [1] does the source give for `C=CC1=C(C)c2cc3[n-]c(cc4nc(cc5[n-]c(cc1n2)c(C)c5CCC(=O)[O-])C(CCC(=O)[O-])=C4C)c(C)c3C=C.[Cl-].[Fe+2].[Fe+3]` [Example 16, ferrous chlorhematin] here?
A: slightly soluble

Q: With “ferric copper chlorophyllin [Example 49]” as the molecule, how does the solubility in water [1] read?
A: slightly soluble

Q: For “ferrous iron hydroxychlorophyllin [Example 76]”, which solubility in water [1] is on record?
A: slightly soluble
